Test results from patent US20260242419A1, “A CYCLIC PEPTIDE FOR TRAPPING INTERLEUKIN-1 BETA” (Merck Sharp & Dohme LLC, priority 2023, published 2026).
Starred links: 1 amine or outer side, 2 acyl side, 3 side chain; linkers in the order of their positions; H or OH if unused. Non-standard residues stand in square brackets, D forms with d. Residues, ends and D or L forms follow the SMILES beside them. Phe(4-(cis-4-COOH-cHex)) = N[C@@H](Cc1ccc([C@H]2CC[C@@H](C(=O)O)CC2)cc1)C(=O)O; dPro(4R-(4-pyridylmethyl)) = O=C(O)[C@H]1C[C@@H](Cc2ccncc2)CN1; X17 = CN(C)C(=O)c1ccc(-c2ccc(C[C@H](N[*:1])C(=O)[*:2])cc2)cc1; Trp(βS-Me,4-F) = C[C@@H](c1c[nH]c2cccc(F)c12)[C@H](N)C(=O)O; Bip(4'-CONH2) = NC(=O)c1ccc(-c2ccc(C[C@H](N)C(=O)O)cc2)cc1; Bip(4'-COOH) = N[C@@H](Cc1ccc(-c2ccc(C(=O)O)cc2)cc1)C(=O)O; Ala(1-bicyclo(1.1.1)pentyl) = N[C@@H](CC12CC(C1)C2)C(=O)O; Ala(pyrimidin-5-yl) = N[C@@H](Cc1cncnc1)C(=O)O; Phe(4-COOH) = N[C@@H](Cc1ccc(C(=O)O)cc1)C(=O)O; Bip = N[C@@H](Cc1ccc(-c2ccccc2)cc1)C(=O)O; Pro(cis-4-F) = O=C(O)[C@@H]1C[C@H](F)CN1; AEF = NCCOc1ccc(C[C@H](N)C(=O)O)cc1; d(αMeD) = C[C@@](N)(CC(=O)O)C(=O)O; 4Pal = N[C@@H](Cc1ccncc1)C(=O)O; aThr = C[C@H](O)[C@H](N)C(=O)O; d(αMeS) = C[C@@](N)(CO)C(=O)O; Dab = NCC[C@H](N)C(=O)O; Aib = CC(C)(N)C(=O)O; Sar = CNCC(=O)O

The compounds below were run against T1, IL-1β (Homo sapiens, UniProt P01584) (assay: IL-6 assay in MRC5 cells: inhibition of IL-1β induced IL-6 secretion (AlphaLISA)). Settings: inhibition of IL-1β induced IL-6 secretion in MRC5 cells; read-out: MRC5 IC50.
T1 construct: purchased BioLegend 579404
T1 sequence (P01584 117-269): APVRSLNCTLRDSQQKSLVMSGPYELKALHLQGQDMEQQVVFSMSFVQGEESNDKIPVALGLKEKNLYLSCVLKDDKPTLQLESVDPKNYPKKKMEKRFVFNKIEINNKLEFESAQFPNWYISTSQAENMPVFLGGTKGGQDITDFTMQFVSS
Assay type: cell-based
Procedure, shortened: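 Compound was pre-incubated 1 h at ambient temperature with recombinant human IL-1β at 2λ EC80 before adding human lung fibroblast MRC5 cells (3000/well) in EMEM with 0.025% BSA. After overnight culture at 37 °C, 5% CO2, secreted IL-6 in conditioned medium was measured by AlphaLISA; IC50 from 4-parameter logistic fits.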
An IC50 of 0.022 nM was found for `C[C@@H](c1c[nH]c2cccc(F)c12)[C@@H]1NC(=O)[C@@H]2C[C@H](F)CN2C(=O)CNC(=O)[C@H](Cc2ccc(C(=O)O)cc2)NC(=O)[C@H](Cc2ccncc2)NC(=O)[C@H](Cc2ccc(-c3ccccc3)cc2)NC(=O)[C@H]2C[C@@H](Cc3ccncc3)CN2C(=O)CNC(=O)[C@H](CCN)NC(=O)[C@H](CCC(N)=O)NC(=O)[C@H](Cc2cncnc2)NC(=O)[C@@](C)(CC(=O)O)NC(=O)[C@H](Cc2c[nH]c3ccccc23)NC(=O)[C@H](CO)NC(=O)C(C)(C)NC1=O` [Example 333] (cyclo([Bip][4Pal][Phe(4-COOH)]G[Pro(cis-4-F)][Trp(βS-Me,4-F)][Aib]SW[d(αMeD)][Ala(pyrimidin-5-yl)]Q[Dab]G[dPro(4R-(4-pyridylmethyl))])) in this work.
An IC50 of 0.022 nM was found for `C[C@H](O)[C@@H]1NC(=O)[C@@](C)(CC(=O)O)NC(=O)[C@H](Cc2c[nH]c3ccccc23)NC(=O)[C@H](CO)NC(=O)C(C)(C)NC(=O)[C@H]([C@@H](C)c2c[nH]c3cccc(F)c23)NC(=O)[C@@H]2C[C@H](F)CN2C(=O)CNC(=O)[C@H](Cc2ccc(C(=O)O)cc2)NC(=O)[C@H](CC23CC(C2)C3)NC(=O)[C@H](Cc2ccc([C@H]3CC[C@@H](C(=O)O)CC3)cc2)NC(=O)[C@H]2C[C@@H](Cc3ccncc3)CN2C(=O)CNC(=O)[C@H](CCN)NC(=O)[C@H](CCC(N)=O)NC1=O` [Example 334] (cyclo([Phe(4-(cis-4-COOH-cHex))][Ala(1-bicyclo(1.1.1)pentyl)][Phe(4-COOH)]G[Pro(cis-4-F)][Trp(βS-Me,4-F)][Aib]SW[d(αMeD)][aThr]Q[Dab]G[dPro(4R-(4-pyridylmethyl))])) in this work.
An IC50 of 0.022 nM was found for `C[C@@H](c1c[nH]c2cccc(F)c12)[C@@H]1NC(=O)[C@@H]2C[C@H](F)CN2C(=O)CNC(=O)[C@H](Cc2ccc(C(=O)O)cc2)NC(=O)[C@H](CC23CC(C2)C3)NC(=O)[C@H](Cc2ccc([C@H]3CC[C@@H](C(=O)O)CC3)cc2)NC(=O)[C@H]2C[C@@H](Cc3ccncc3)CN2C(=O)CNC(=O)[C@H](CCN)NC(=O)[C@H](CCC(N)=O)NC(=O)[C@H](Cc2cncnc2)NC(=O)[C@@](C)(CC(=O)O)NC(=O)[C@H](Cc2c[nH]c3ccccc23)NC(=O)[C@H](CO)NC(=O)C(C)(C)NC1=O` [Example 335] (cyclo([Phe(4-(cis-4-COOH-cHex))][Ala(1-bicyclo(1.1.1)pentyl)][Phe(4-COOH)]G[Pro(cis-4-F)][Trp(βS-Me,4-F)][Aib]SW[d(αMeD)][Ala(pyrimidin-5-yl)]Q[Dab]G[dPro(4R-(4-pyridylmethyl))])) in this work.
An IC50 of 0.023 nM was found for `CC(=O)NCCOc1ccc(C[C@@H]2NC(=O)[C@H]3C[C@@H](Cc4ccncc4)CN3C(=O)CNC(=O)[C@H](CCN)NC(=O)[C@H](CCC(N)=O)NC(=O)[C@H](Cc3ccccc3)NC(=O)C(C)(C)NC(=O)[C@H](Cc3c[nH]c4ccccc34)NC(=O)[C@H](CCC(=O)O)NC(=O)C(C)(C)NC(=O)[C@H]([C@@H](C)c3c[nH]c4cccc(F)c34)NC(=O)[C@@H]3C[C@H](F)CN3C(=O)CNC(=O)[C@H](Cc3ccc(C(=O)O)cc3)NC(=O)[C@H](Cc3ccncc3)NC2=O)cc1` [Example 336] (cyclo([AEF](Ac)[4Pal][Phe(4-COOH)]G[Pro(cis-4-F)][Trp(βS-Me,4-F)][Aib]EW[Aib]FQ[Dab]G[dPro(4R-(4-pyridylmethyl))])) in this work.
An IC50 of 0.022 nM was found for `C[C@H](O)[C@@H]1NC(=O)[C@@](C)(CC(=O)O)NC(=O)[C@H](Cc2c[nH]c3ccccc23)NC(=O)[C@H](CO)NC(=O)C(C)(C)NC(=O)[C@H]([C@@H](C)c2c[nH]c3cccc(F)c23)NC(=O)[C@@H]2C[C@H](F)CN2C(=O)CNC(=O)[C@H](Cc2ccc(C(=O)O)cc2)NC(=O)[C@H](Cc2ccncc2)NC(=O)[C@H](Cc2ccc(-c3ccc(C(=O)O)cc3)cc2)NC(=O)[C@H]2C[C@@H](Cc3ccncc3)CN2C(=O)CN(C)C(=O)[C@H](CCN)NC(=O)[C@H](CCC(N)=O)NC1=O` [Example 337] (cyclo([Bip(4'-COOH)][4Pal][Phe(4-COOH)]G[Pro(cis-4-F)][Trp(βS-Me,4-F)][Aib]SW[d(αMeD)][aThr]Q[Dab][Sar][dPro(4R-(4-pyridylmethyl))])) in this work.
An IC50 of 0.018 nM was found for `C[C@@H](c1c[nH]c2cccc(F)c12)[C@@H]1NC(=O)[C@@H]2C[C@H](F)CN2C(=O)CNC(=O)[C@H](Cc2ccc(C(=O)O)cc2)NC(=O)[C@H](Cc2ccncc2)NC(=O)[C@H](Cc2ccc(-c3ccc(C(=O)N(C)C)cc3)cc2)NC(=O)[C@H]2C[C@@H](Cc3ccncc3)CN2C(=O)CNC(=O)[C@H](CCN)NC(=O)[C@H](CCC(N)=O)NC(=O)[C@H](Cc2cncnc2)NC(=O)[C@@](C)(CO)NC(=O)[C@H](Cc2c[nH]c3ccccc23)NC(=O)[C@H](CO)NC(=O)C(C)(C)NC1=O` [Example 338] (cyclo([X17][4Pal][Phe(4-COOH)]G[Pro(cis-4-F)][Trp(βS-Me,4-F)][Aib]SW[d(αMeS)][Ala(pyrimidin-5-yl)]Q[Dab]G[dPro(4R-(4-pyridylmethyl))])) in this work.
An IC50 of 0.024 nM was found for `C[C@@H](c1c[nH]c2cccc(F)c12)[C@@H]1NC(=O)[C@@H]2C[C@H](F)CN2C(=O)CNC(=O)[C@H](Cc2ccc(C(=O)O)cc2)NC(=O)[C@H](Cc2ccncc2)NC(=O)[C@H](Cc2ccc(-c3ccc(C(N)=O)cc3)cc2)NC(=O)[C@H]2C[C@@H](Cc3ccncc3)CN2C(=O)CNC(=O)[C@H](CCN)NC(=O)[C@H](CCC(N)=O)NC(=O)[C@H](Cc2cncnc2)NC(=O)[C@@](C)(CO)NC(=O)[C@H](Cc2c[nH]c3ccccc23)NC(=O)[C@H](CO)NC(=O)C(C)(C)NC1=O` [Example 339] (cyclo([Bip(4'-CONH2)][4Pal][Phe(4-COOH)]G[Pro(cis-4-F)][Trp(βS-Me,4-F)][Aib]SW[d(αMeS)][Ala(pyrimidin-5-yl)]Q[Dab]G[dPro(4R-(4-pyridylmethyl))])) in this work.
An IC50 of 0.021 nM was found for `C[C@@H](c1c[nH]c2cccc(F)c12)[C@@H]1NC(=O)[C@@H]2C[C@H](F)CN2C(=O)CNC(=O)[C@H](Cc2ccc(C(=O)O)cc2)NC(=O)[C@H](Cc2ccncc2)NC(=O)[C@H](Cc2ccc(-c3ccccc3)cc2)NC(=O)[C@H]2C[C@@H](Cc3ccncc3)CN2C(=O)CNC(=O)[C@H](CCN)NC(=O)[C@H](CCC(N)=O)NC(=O)[C@H](Cc2cncnc2)NC(=O)[C@@](C)(CO)NC(=O)[C@H](Cc2c[nH]c3ccccc23)NC(=O)[C@H](CO)NC(=O)C(C)(C)NC1=O` [Example 340] (cyclo([Bip][4Pal][Phe(4-COOH)]G[Pro(cis-4-F)][Trp(βS-Me,4-F)][Aib]SW[d(αMeS)][Ala(pyrimidin-5-yl)]Q[Dab]G[dPro(4R-(4-pyridylmethyl))])) in this work.
An IC50 of 0.024 nM was found for `C[C@@H](c1c[nH]c2cccc(F)c12)[C@@H]1NC(=O)[C@@H]2C[C@H](F)CN2C(=O)CNC(=O)[C@H](Cc2ccc(C(=O)O)cc2)NC(=O)[C@H](CC23CC(C2)C3)NC(=O)[C@H](Cc2ccc(-c3ccc(C(=O)N(C)C)cc3)cc2)NC(=O)[C@H]2C[C@@H](Cc3ccncc3)CN2C(=O)CNC(=O)[C@H](CCN)NC(=O)[C@H](CCC(N)=O)NC(=O)[C@H](Cc2cncnc2)NC(=O)[C@@](C)(CC(=O)O)NC(=O)[C@H](Cc2c[nH]c3ccccc23)NC(=O)[C@H](CO)NC(=O)C(C)(C)NC1=O` [Example 341] (cyclo([X17][Ala(1-bicyclo(1.1.1)pentyl)][Phe(4-COOH)]G[Pro(cis-4-F)][Trp(βS-Me,4-F)][Aib]SW[d(αMeD)][Ala(pyrimidin-5-yl)]Q[Dab]G[dPro(4R-(4-pyridylmethyl))])) in this work.
